Measured values published in EP3811945A1, “COMPOUNDS FOR TREATING AND PREVENTING GROWTH HORMONE RECEPTOR-DEPENDENT CONDITIONS” (UMC Utrecht Holding B.V., priority 2019, dated 2021).

Experiments:
MDA-MB-231 = test: Luminescent cell viability assay (ATP); type: cell-based; conditions: Homo sapiens, 46 hours, luciferase signal normalized to untreated cells = 1, read-out: Relative viability MDA-MB-231
Description: (§1) Compounds were assessed for effects on viability of the breast cancer cell lines MDA-MB-231 and MDA-MB-453. The cells were incubated with the compounds for 46 hours at a concentration of 5 uM. DMSO was used as vehicle control. Cell viability was assessed after approximately 46 hours by using a luminescent cell viability assay. This assay generates a luminescent signal, proportional to the amount of ATP that is present as a readout of metabolically active cells. Relative viability was calculated by expressing the luciferase signal as a value normalized to untreated cells, meaning that the measured luciferase signal in untreated cells equals 1.

MDA-MB-453 = test: Luminescent cell viability assay (ATP); type: cell-based; conditions: Homo sapiens, 46 hours, luciferase signal normalized to untreated cells = 1, read-out: relative viability MDA-MB-453
Description: as §1

Row | SMILES | viability at 5 µM (MDA-MB-231) [%] | viability at 5 µM (MDA-MB-453) [%]
1 | Cc1nc(N)nc(N)c1C=CC(C)c1ccc(C(F)(F)F)cc1 (stereo not drawn) [compound 7, 2-amino-6-methyl-5-{3-[4-(trifluoromethyl)phenyl]-1-butenyl}-4-pyrimidinylamine] | 94.2 | 54
2 | Cc1nc(N)nc(N)c1C=CC1(c2ccc(Cl)cc2)CC1 [compound 8, 5-[2-[1-(4-chlorophenyl)cyclopropyl]vinyl]-6-methylpyrimidine-2,4-diamine] | 91.2 | 49.5
3 | Cc1nc(N)nc(N)c1C=CC(C)(C)c1ccc(C(F)(F)F)cc1 [compound 9, 2-amino-6-methyl-5-{3-methyl-3-[4-(trifluoromethyl)phenyl]-1-butenyl}-4-pyrimidinylamine] | 91.8 | 38.9
4 | COc1ccc(C(C)(C)C=Cc2c(C)nc(N)nc2N)cc1 [compound 11, 2-amino-5-[3-(4-methoxyphenyl)-3-methyl-1-butenyl]-6-methyl-4-pyrimidinylamine] | 87.5 | 48.7
5 | Cc1nc(N)nc(N)c1C=CC(C)(C)c1ccc(Cl)cc1 [compound 12, 2-amino-5-[3-(4-chlorophenyl)-3-methyl-1-butenyl]-6-methyl-4-pyrimidinylamine] | 93.3 | 56.5
6 | Cc1nc(N)nc(N)c1C=CC(C)(C)c1ccc(Cl)c(Cl)c1 [compound 13, 2-amino-5-[3-(3,4-dichlorophenyl)-3-methyl-1-butenyl]-6-methyl-4-pyrimidinylamine] | 79.6 | 48.9
7 | Cc1nc(N)nc(N)c1C=CC(C)c1cccc(Cl)c1 (stereo not drawn) [compound 14, 2-amino-5-[3-(3-chlorophenyl)-1-butenyl]-6-methyl-4-pyrimidinylamine] | 90.5 | 61.9
8 | COc1cc(OC)cc(C(C)(C)C=Cc2c(C)nc(N)nc2N)c1 [compound 15, 5-[3-(3,5-dimethoxyphenyl)-3-methyl-1-butenyl]-6-methyl-2,4-pyrimidinediamine] | 91.8 | 66.7
9 | Cc1nc(N)nc(N)c1C=CC(C)c1ccccc1Cl (stereo not drawn) [compound 16, 2-amino-5-[3-(2-chlorophenyl)-1-butenyl]-6-methyl-4-pyrimidinylamine] | 73.7 | 61.7
10 | Cc1nc(N)nc(N)c1C=CC1(c2ccc(Cl)cc2)CCCC1 [compound 17, 2-amino-5-{2-[1-(4-chlorophenyl)cyclopentyl]vinyl}-6-methyl-4-pyrimidinylamine] | 74.9 | 64
11 | Cc1nc(N)nc(N)c1C=CC(C)(C)c1cc(Cl)cc(Cl)c1 [compound 18, 2-amino-5-[3-(3,5-dichlorophenyl)-3-methyl-1-butenyl]-6-methyl-4-pyrimidinylamine] | 89.7 | 78.9
12 | CC(C)c1nc(N)nc(N)c1C=CC(C)(C)c1ccc(C(F)(F)F)cc1 [compound 19, 6-isopropyl-5-{3-methyl-3-[4-(trifluoromethyl)phenyl]-1-butenyl}-2,4-pyrimidinediamine] | 89.8 | 80.6
13 | Cc1nc(N)nc(N)c1C=CC(C)(C)c1ccc(S(C)(=O)=O)cc1 [compound 20, 2-amino-6-methyl-5-{3-methyl-3-[4-(methylsulfonyl)phenyl]-1-butenyl}-4-pyrimidinylamine] | 64.2 | 63.7
14 | Cc1nc(N)nc(N)c1C=CC1(c2ccccc2C(F)(F)F)CC1 [compound 21, 6-methyl-5-[2-[1-[2-(trifluoromethyl)phenyl]cyclopropyl]vinyl]pyrimidine-2,4-diamine] | 87.9 | 52.9
15 | COc1ccc(C2(C=Cc3c(C)nc(N)nc3N)CC2)cc1 [compound 22, 5-[2-[1-(4-methoxyphenyl)cyclopropyl]vinyl]-6-methylpyrimidine-2,4-diamine] | 85.3 | 42.1
